According to the supplement of paper PMC13207355:

Legend:
Settings in all cases: exposure time: 72 h
[1] = tested on: E28 (patient-derived glioblastoma stem cells of classical subtype); assay: surviving fraction (nuclei count normalised to DMSO); higher = more cells surviving (less toxic)
[2] = tested on: E21 (patient-derived glioblastoma stem cells of mesenchymal subtype); assay: as above
[3] = tested on: E57 (patient-derived glioblastoma stem cells of mesenchymal subtype); assay: as above
[4] = tested on: E13 (patient-derived glioblastoma stem cells of classical subtype); assay: as above
[5] = tested on: E34 (patient-derived glioblastoma stem cells of proneural subtype); assay: as above
[6] = tested on: FT3469 (normal neural stem cell line); assay: as above
[7] = tested on: E31 (patient-derived glioblastoma stem cells of proneural subtype); assay: as above
[8] = tested on: E28; assay: phenotypic distance (Euclidean, principal components) from DMSO controls (arbitrary units); higher = stronger morphological change
[9] = tested on: E21; assay: as above
[10] = tested on: E57; assay: as above
[11] = tested on: E13; assay: as above
[12] = tested on: E34; assay: as above
[13] = tested on: FT3469; assay: as above
[14] = tested on: E31; assay: as above
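Throughout, for phenotypic distance (Euclidean, principal components) from DMSO controls: cell Painting imaging in 384-well plates, CellProfiler features reduced to at least 20 principal components, Euclidean distance versus same-plate DMSO vehicle wells (0.1% v/v), median over six images per well.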
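Throughout, for surviving fraction (nuclei count normalised to DMSO): nuclei counted by high-content imaging of Hoechst-stained cells in laminin-coated 384-well plates, relative to 0.1% DMSO vehicle wells, with staurosporine as cell-death control.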

C#C[C@]1(O)CC[C@H]2[C@@H]3CCC4=CCCC[C@@H]4[C@H]3CC[C@@]21C [Lynestrenol]
Settings | phenotypic distance | surviving fraction
[1], 4.1 nM | – | 1.06
[1], 12.3 nM | – | 1.05
[1], 37 nM | – | 0.924
[1], 111.1 nM | – | 1.04
[1], 333.3 nM | – | 1.09
[1], 1000 nM | – | 1.16
[1], 3000 nM | – | 1.16
[2], 4.1 nM | – | 1.03
[2], 12.3 nM | – | 0.998
[2], 37 nM | – | 1.01
[2], 111.1 nM | – | 1.08
[2], 333.3 nM | – | 1.07
[2], 1000 nM | – | 0.975
[2], 3000 nM | – | 1.08
[3], 4.1 nM | – | 1.2
[3], 12.3 nM | – | 1.03
[3], 37 nM | – | 1.04
[3], 111.1 nM | – | 1.06
[3], 333.3 nM | – | 1.08
[3], 1000 nM | – | 1.17
[3], 3000 nM | – | 1.08
[4], 4.1 nM | – | 0.994
[4], 12.3 nM | – | 0.901
[4], 37 nM | – | 1.03
[4], 111.1 nM | – | 1.05
[4], 333.3 nM | – | 1.03
[4], 1000 nM | – | 1.04
[4], 3000 nM | – | 0.88
[5], 4.1 nM | – | 0.966
[5], 12.3 nM | – | 0.988
[5], 37 nM | – | 0.917
[5], 111.1 nM | – | 1.24
[5], 333.3 nM | – | 1.03
[5], 1000 nM | – | 0.979
[5], 3000 nM | – | 0.946
[6], 4.1 nM | – | 1.1
[6], 12.3 nM | – | 1.19
[6], 37 nM | – | 0.984
[6], 111.1 nM | – | 1.26
[6], 333.3 nM | – | 1.07
[6], 1000 nM | – | 1.13
[6], 3000 nM | – | 1.06
[7], 4.1 nM | – | 0.991
[7], 12.3 nM | – | 1.12
[7], 37 nM | – | 0.813
[7], 111.1 nM | – | 1.26
[7], 333.3 nM | – | 0.895
[7], 1000 nM | – | 1.07
[7], 3000 nM | – | 1.09
[8], 4.1 nM | 0.488 | –
[8], 12.3 nM | 0.735 | –
[8], 37 nM | 0.493 | –
[8], 111.1 nM | 0.306 | –
[8], 333.3 nM | 0.694 | –
[8], 1000 nM | 0.828 | –
[8], 3000 nM | 0.566 | –
[9], 4.1 nM | 0.397 | –
[9], 12.3 nM | 0.584 | –
[9], 37 nM | 0.589 | –
[9], 111.1 nM | 0.676 | –
[9], 333.3 nM | 0.662 | –
[9], 1000 nM | 0.692 | –
[9], 3000 nM | 1.35 | –
[10], 4.1 nM | 0.911 | –
[10], 12.3 nM | 0.621 | –
[10], 37 nM | 0.561 | –
[10], 111.1 nM | 0.889 | –
[10], 333.3 nM | 0.765 | –
[10], 1000 nM | 0.843 | –
[10], 3000 nM | 0.439 | –
[11], 4.1 nM | 0.399 | –
[11], 12.3 nM | 0.621 | –
[11], 37 nM | 0.422 | –
[11], 111.1 nM | 0.821 | –
[11], 333.3 nM | 0.697 | –
[11], 1000 nM | 0.59 | –
[11], 3000 nM | 1.03 | –
[12], 4.1 nM | 0.505 | –
[12], 12.3 nM | 0.89 | –
[12], 37 nM | 0.743 | –
[12], 111.1 nM | 0.994 | –
[12], 333.3 nM | 0.472 | –
[12], 1000 nM | 0.846 | –
[12], 3000 nM | 0.609 | –
[13], 4.1 nM | 0.64 | –
[13], 12.3 nM | 1.14 | –
[13], 37 nM | 0.738 | –
[13], 111.1 nM | 1.23 | –
[13], 333.3 nM | 0.567 | –
[13], 1000 nM | 0.796 | –
[13], 3000 nM | 0.874 | –
[14], 4.1 nM | 0.539 | –
[14], 12.3 nM | 0.803 | –
[14], 37 nM | 0.671 | –
[14], 111.1 nM | 0.989 | –
[14], 333.3 nM | 0.806 | –
[14], 1000 nM | 0.394 | –
[14], 3000 nM | 1.33 | –

CC[N+](CC)(CC)CCOc1ccc(/C=C/c2ccccc2)cc1 [MG 624]
Settings | phenotypic distance | surviving fraction
[1], 4.1 nM | – | 1.04
[1], 12.3 nM | – | 1.24
[1], 37 nM | – | 0.999
[1], 111.1 nM | – | 1.11
[1], 333.3 nM | – | 1.29
[1], 1000 nM | – | 0.97
[1], 3000 nM | – | 0.897
[2], 4.1 nM | – | 0.978
[2], 12.3 nM | – | 0.972
[2], 37 nM | – | 0.961
[2], 111.1 nM | – | 1.05
[2], 333.3 nM | – | 1.02
[2], 1000 nM | – | 0.929
[2], 3000 nM | – | 0.748
[3], 4.1 nM | – | 0.981
[3], 12.3 nM | – | 0.982
[3], 37 nM | – | 1.06
[3], 111.1 nM | – | 1.1
[3], 333.3 nM | – | 1.15
[3], 1000 nM | – | 0.922
[3], 3000 nM | – | 1.05
[4], 4.1 nM | – | 0.872
[4], 12.3 nM | – | 1.01
[4], 37 nM | – | 0.904
[4], 111.1 nM | – | 0.898
[4], 333.3 nM | – | 0.819
[4], 1000 nM | – | 0.958
[4], 3000 nM | – | 0.636
[5], 4.1 nM | – | 1.13
[5], 12.3 nM | – | 0.931
[5], 37 nM | – | 0.93
[5], 111.1 nM | – | 0.904
[5], 333.3 nM | – | 1.06
[5], 1000 nM | – | 1.1
[5], 3000 nM | – | 0.853
[6], 4.1 nM | – | 0.999
[6], 12.3 nM | – | 0.934
[6], 37 nM | – | 1.26
[6], 111.1 nM | – | 1.25
[6], 333.3 nM | – | 1.13
[6], 1000 nM | – | 1.12
[6], 3000 nM | – | 1.03
[7], 4.1 nM | – | 1.02
[7], 12.3 nM | – | 1.02
[7], 37 nM | – | 0.927
[7], 111.1 nM | – | 1.22
[7], 333.3 nM | – | 1.03
[7], 1000 nM | – | 1.11
[7], 3000 nM | – | 0.671
[8], 4.1 nM | 2.26 | –
[8], 12.3 nM | 1.2 | –
[8], 37 nM | 0.981 | –
[8], 111.1 nM | 1.14 | –
[8], 333.3 nM | 1.59 | –
[8], 1000 nM | 0.807 | –
[8], 3000 nM | 0.948 | –
[9], 4.1 nM | 0.724 | –
[9], 12.3 nM | 0.703 | –
[9], 37 nM | 0.669 | –
[9], 111.1 nM | 0.982 | –
[9], 333.3 nM | 1.38 | –
[9], 1000 nM | 1.38 | –
[9], 3000 nM | 2.84 | –
[10], 4.1 nM | 0.764 | –
[10], 12.3 nM | 0.906 | –
[10], 37 nM | 0.99 | –
[10], 111.1 nM | 1.14 | –
[10], 333.3 nM | 1.29 | –
[10], 1000 nM | 1.55 | –
[10], 3000 nM | 1.49 | –
[11], 4.1 nM | 0.785 | –
[11], 12.3 nM | 1.16 | –
[11], 37 nM | 0.769 | –
[11], 111.1 nM | 0.848 | –
[11], 333.3 nM | 1.65 | –
[11], 1000 nM | 2.21 | –
[11], 3000 nM | 2.89 | –
[12], 4.1 nM | 0.531 | –
[12], 12.3 nM | 0.708 | –
[12], 37 nM | 1 | –
[12], 111.1 nM | 0.94 | –
[12], 333.3 nM | 1.4 | –
[12], 1000 nM | 1.76 | –
[12], 3000 nM | 0.649 | –
[13], 4.1 nM | 0.491 | –
[13], 12.3 nM | 1.05 | –
[13], 37 nM | 0.814 | –
[13], 111.1 nM | 1.61 | –
[13], 333.3 nM | 1.29 | –
[13], 1000 nM | 1.26 | –
[13], 3000 nM | 1.36 | –
[14], 4.1 nM | 2.31 | –
[14], 12.3 nM | 2.34 | –
[14], 37 nM | 0.662 | –
[14], 111.1 nM | 1.14 | –
[14], 333.3 nM | 1.83 | –
[14], 1000 nM | 2.39 | –
[14], 3000 nM | 3.97 | –
